Data taken from patent US11453671B2, “Pyrazolopyrimidine inhibitors of JAK kinases and uses thereof” (Genentech, Inc., priority 2020, dated 2022).
Where two headings read alike, the source gives them in different places.

Key:
[1] = target: T1, recombinant human JAK1 kinase domain protein (Residues 854-1154) (Homo sapiens, UniProt P23458); assay: JAK1 biochemical assay (microfluidic mobility shift, peptide phosphorylation); conditions: 25 μM ATP, 1 nM total JAK1; read-out: Enzyme JAK1 Ki
T1 construct: human JAK1 kinase domain protein (Residues 854-1154); purchased Proteros Biostructures GmbH (Martinsried, Germany); host or cells: insect cells
T1 sequence (P23458 854-1154): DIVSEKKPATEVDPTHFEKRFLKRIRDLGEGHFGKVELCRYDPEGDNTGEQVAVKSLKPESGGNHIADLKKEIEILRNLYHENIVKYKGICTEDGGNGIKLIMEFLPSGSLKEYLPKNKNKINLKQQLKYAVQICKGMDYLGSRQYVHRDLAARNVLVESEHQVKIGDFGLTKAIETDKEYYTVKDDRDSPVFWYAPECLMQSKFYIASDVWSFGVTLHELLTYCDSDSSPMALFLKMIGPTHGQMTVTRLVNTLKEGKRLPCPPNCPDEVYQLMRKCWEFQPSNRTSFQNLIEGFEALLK
Description: JAK1 and JAK2 Biochemical Assays

[2] = target: Recombinant human JAK2 kinase domain protein (Residues 812-1132) (Homo sapiens, UniProt O60674); assay: JAK2 biochemical assay (microfluidic mobility shift, peptide phosphorylation); conditions: Enzyme JAK2 Ki (nM), 25 μM ATP, 0.2 nM total JAK2
Chain of Recombinant human JAK2 kinase domain protein (Residues 812-1132) (O60674 812-1132): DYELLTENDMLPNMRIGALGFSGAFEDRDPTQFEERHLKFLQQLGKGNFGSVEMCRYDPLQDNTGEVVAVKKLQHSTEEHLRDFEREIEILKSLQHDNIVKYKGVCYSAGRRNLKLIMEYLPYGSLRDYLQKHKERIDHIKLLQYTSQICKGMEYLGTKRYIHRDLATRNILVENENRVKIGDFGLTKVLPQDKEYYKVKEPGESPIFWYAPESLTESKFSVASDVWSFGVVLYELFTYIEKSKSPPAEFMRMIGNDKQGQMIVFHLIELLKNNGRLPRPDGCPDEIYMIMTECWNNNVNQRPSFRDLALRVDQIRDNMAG
Method: The in vitro biochemical assays quantify JAK-catalyzed phosphorylation of a synthetic peptide, as detected using a LabChip® EZ Reader II microfluidic mobility shift instrument (PerkinElmer; Waltham, Mass.). […] Y-1B is fluorescently labeled on the N-terminus with 5-FAM (5-carboxyfluorescein) and contains a single tyrosine residue (Y) that can be phosphorylated by JAK activity. The substrate peptide stock is prepared in DMSO at 5 mM.
In each titration experiment, test compound was tested in duplicate at each of the twelve concentrations. Blank reactions contained ATP, peptide, and DMSO, but no JAK or test compound, whereas uninhibited control reactions contained ATP, peptide, JAK, and DMSO, but no test compound.
Peptide plus ATP mixture (24 μL) was added to 1 μL of test compound in DMSO (or DMSO alone). The reactions were initiated by adding 25 μL of JAK enzyme to the inhibitor/peptide/ATP mixture before thoroughly mixing the resultant solution. Reactions were incubated at room temperature (22° C.-23° C.) in a final volume of 50 μL per well in 384-well plates.
In each reaction, the residual Y-1B substrate and the phospho-peptide product generated were separated using the EZ Reader II instrument. Electrophoretic separation of molecules of product from molecules of substrate was achieved using downstream and upstream voltages of −500 and −2600 V, respectively, at an operating pressure of −1.3 psi.
The extent (or percent) of conversion of substrate to product was calculated from the corresponding peak heights in the electropherogram using HTS Well Analyzer software, Version 5.2 (PerkinElmer), and the following equation (Equation 1): % conversion=[P÷(S+P)]×100 Equation 1 where S and P represent the peak heights of the substrate and product, respectively. After any baseline signal from blank wells containing no JAK was subtracted from the signal of all test wells, the % conversion data were converted to fractional activity as shown in Equation 2, where vi and vo are the % conversion in the presence and absence of test compound, respectively.

[3] = system: JAK1: IL-13-stimulated STAT6 phosphorylation in BEAS-2B cells; assay: P-STAT6 BEAS-2B+IL-13 Cell Assay; format: cell-based, human; conditions: IL-13 stimulation, read-out: Cellular JAK1 PSTAT6 BEAS2B + IL13 IC50
Method: P-STAT6 BEAS-2B+IL-13 Cell Assay
In order to study the effect of JAK1 inhibitors in a cell line that is relevant to the cell biology of human asthma, an IL-13-stimulated STAT6 phosphorylation assay in the human lung bronchial epithelial BEAS-2B cell line was developed.
BEAS-2B cells (ATCC® CRL-9609™) were grown in Bronchial Epithelial Growth Medium (BEGM) (Lonza Catalog No. CC-3170; Walkersville, Md.; or PromoCell Catalog No. C-21060; Heidelberg, Germany). Test compound stock solutions (0.5 mM in DMSO) were serially diluted 1:2 in DMSO to generate a 10-point concentration curve (at 500×test concentration), which was further diluted by a 50-fold dilution step in BEGM to generate a 10× concentration curve (in 2% DMSO). Cells were plated at 100,000 cells/well in 200 μL of BEGM in 96-well plates and incubated for 48 hours at 37° C. in a humidified incubator. Medium was aspirated from the cells and replaced with 70 μL of fresh BEGM. Diluted test compound (10 μL; or 2% DMSO in assay medium) was added to the cells, and the plates were incubated for 1 hour at 37° C. in a humidified incubator. Twenty μL of 250 ng/mL human recombinant IL-13 (Bio Techne Catalog No. 213-ILB) was then added to the cells and incubated for 15 minutes at 37° C. Medium was aspirated from the cells and 60 μL of ice-cold 1×cell lysis buffer (Cell Signaling Technologies; Catalog No. 9803S) containing 1 mM PMSF was added to the cells. Assay plates were incubated at −80° C. for at least 1 hour. P-STAT6 was measured by coating GAR plates (MSD; Catalog No. L45RA-1) with rabbit anti-human total STAT6 antibody (Cell Signaling Technologies; Catalog No. 9362S), incubating the cell lysates in the coated plates overnight at 4° C., and then detecting with mouse anti-phospho-STAT6 (Tyr641) Clone 16E12 antibody (Millipore; Catalog No. 05-590, custom labeled by MSD with SULFO-tag) using standard MSD plate processing, washing, and detection protocols. Plates were read on the MESO SECTOR S600. Data Analysis
Data analysis was performed by subtracting negative control values from all wells and determining percent of control using the positive control values; the IC50 was determined with a four-parameter logistic fit model as shown in Equation 4.

Compound | Ki [1] | Ki [2] | IC50 ([3]; Homo sapiens, BEAS-2B) | IC50 [3]
CS(=O)(=O)c1ccc(OC(F)F)c(-c2nn(C3CCOC3=O)cc2NC(=O)c2cnn3cccnc23)c1 (single isomer, unassigned) [Example 32, N-[3-[2-(difluoromethoxy)-5-methylsulfonyl-phenyl]-1-(2-oxotetrahydrofuran-3-yl)pyrazol-4-yl]pyrazolo[1,5-a]pyrimidine-3-carboxamide] | 1.1 nM | 0.62 nM | 120 nM | –
CS(=O)(=O)c1ccc(OC(F)F)c(-c2nn(C3CCOC3=O)cc2NC(=O)c2cnn3cccnc23)c1 (single isomer, unassigned) [Example 33, N-[3-[2-(difluoromethoxy)-5-methylsulfonyl-phenyl]-1-(2-oxotetrahydrofuran-3-yl)pyrazol-4-yl]pyrazolo[1,5-a]pyrimidine-3-carboxamide] | 0.4 nM | 0.23 nM | – | 99 nM
CC(O)C(C)S(=O)(=O)c1ccc(OC(F)F)c(-c2nn(C)cc2NC(=O)c2cnn3cccnc23)c1 (single isomer, unassigned) [Example 70, N-[3-[2-(difluoromethxoy)-5-(2-hydroxy-1-methyl-propyl)sulfonyl-phenyl]-1-methyl-pyrazol-4-yl]pyrazolo[1,5-a]pyrimidine-3-carboxamide] | 1 nM | 0.33 nM | – | 75 nM
CN1CCCC1CCn1cc(S(=O)(=O)c2ccc(OC(F)F)c(-c3nn(C)cc3NC(=O)c3cnn4cccnc34)c2)cn1 (stereo in doubt) [Example 57, N-[3-[2-(difluoromethoxy)-5-[1-[2-[(2S)-1-methylpyrrolidin-2-yl]ethyl]pyrazol-4-yl]sulfonyl-phenyl]-1-methyl-pyrazol-4-yl]pyrazolo[1,5-a]pyrimidine-3-carboxamide] | 0.57 nM | 0.54 nM | 54 nM | –
Cn1cc(NC(=O)c2cnn3cccnc23)c(-c2cc(S(=O)(=O)c3cccc(CCN)c3)ccc2OC(F)F)n1 [Example 18, N-[3-[5-[3-(2-aminoethyl)phenyl]sulfonyl-2-(difluoromethoxy)phenyl]-1-methyl-pyrazol-4-yl]pyrazolo[1,5-a]pyrimidine-3-carboxamide] | 0.43 nM | 0.4 nM | 290 nM | –
N#CCn1cc(NC(=O)c2cnn3cccnc23)c(-c2cc(S(=O)(=O)C(F)F)ccc2OC(F)F)n1 [Example 29, N-[1-(cyanomethyl)-3-[2-(difluoromethoxy)-5-(difluoromethylsulfonyl)phenyl]pyrazol-4-yl]pyrazolo[1,5-a]pyrimidine-3-carboxamide] | 0.58 nM | 0.37 nM | 25 nM | –
CC(C)OC(=O)n1cc(NC(=O)c2cnn3cccnc23)c(-c2cc(S(C)(=O)=O)ccc2OC(F)F)n1 [Example 34, isopropyl 3-[2-(difluoromethoxy)-5-methylsulfonyl-phenyl]-4-(pyrazolo[1,5-a]pyrimidine-3-carbonylamino)pyrazole-1-carboxylate] | 0.31 nM | 0.29 nM | 21 nM | –
C[C@H](O)Cn1cc(S(=O)(=O)c2ccc(OC(F)F)c(-c3nn(C)cc3NC(=O)c3cnn4cccnc34)c2)cn1 [Example 38, N-[3-[2-(difluoromethoxy)-5-[1-[(2S)-2-hydroxypropyl]pyrazol-4-yl]sulfonyl-phenyl]-1-methyl-pyrazol-4-yl]pyrazolo[1,5-a]pyrimidine-3-carboxamide] | 0.34 nM | 0.25 nM | 89 nM | –
Cn1cc(NC(=O)c2cnn3cccnc23)c(-c2cc(S(=O)(=O)C(CF)CF)ccc2OC(F)F)n1 [Example 39, N-[3-[2-(difluoromethoxy)-5-[2-fluoro-1-(fluoromethyl)ethyl]sulfonyl-phenyl]-1-methyl-pyrazol-4-yl]pyrazolo[1,5-a]pyrimidine-3-carboxamide] | 1.5 nM | 0.53 nM | 230 nM | –
Cn1cc(NC(=O)c2cnn3cccnc23)c(-c2cc(S(=O)(=O)c3ccc(=O)[nH]c3)ccc2OC(F)F)n1 [Example 43, N-[3-[2-(difluoromethoxy)-5-[(6-oxo-1H-pyridin-3-yl)sulfonyl]phenyl]-1-methyl-pyrazol-4-yl]pyrazolo[1,5-a]pyrimidine-3-carboxamide] | 0.5 nM | 0.27 nM | ≥ 1000 nM | –

The next lines start with results.

Ki [1] | Ki [2] | Compound | IC50 ([3]; Homo sapiens, BEAS-2B) | IC50 [3]
4 nM | 1.7 nM | CN1CCC(S(=O)(=O)c2ccc(OC(F)F)c(-c3nn(C)cc3NC(=O)c3cnn4cccnc34)c2)C1 (single isomer, unassigned) [Example 19, N-[3-[2-(difluoromethoxy)-5-(1-methylpyrrolidin-3-yl)sulfonyl-phenyl]-1-methyl-pyrazol-4-yl]pyrazolo[1,5-a]pyrimidine-3-carboxamide] | 120 nM | –
1.5 nM | 0.65 nM | CN1CCC(S(=O)(=O)c2ccc(OC(F)F)c(-c3nn(C)cc3NC(=O)c3cnn4cccnc34)c2)C1 (single isomer, unassigned) [Example 20, N-[3-[2-(difluoromethoxy)-5-(1-methylpyrrolidin-3-yl)sulfonyl-phenyl]-1-methyl-pyrazol-4-yl]pyrazolo[1,5-a]pyrimidine-3-carboxamide] | – | 65 nM
1.4 nM | 0.46 nM | CC(O)C(C)S(=O)(=O)c1ccc(OC(F)F)c(-c2nn(C)cc2NC(=O)c2cnn3cccnc23)c1 (single isomer, unassigned) [Example 71, N-[3-[2-(difluoromethoxy)-5-(2-hydroxy-1-methyl-propyl)sulfonyl-phenyl]-1-methyl-pyrazol-4-yl]pyrazolo[1,5-a]pyrimidine-3-carboxamide] | – | 110 nM
2 nM | 0.66 nM | CN1CC(S(=O)(=O)c2ccc(OC(F)F)c(-c3nn(C)cc3NC(=O)c3cnn4cccnc34)c2)C1 [Example 3, N-[3-[2-(difluoromethoxy)-5-(1-methylazetidin-3-yl)sulfonyl-phenyl]-1-methyl-pyrazol-4-yl]pyrazolo[1,5-a]pyrimidine-3-carboxamide] | 58 nM | –
1.4 nM | 0.6 nM | Cn1cc(NC(=O)c2cnn3cccnc23)c(-c2cc(S(=O)(=O)C3CNC3)ccc2OC(F)F)n1 [Example 4, N-[3-[5-(azetidin-3-ylsulfonyl)-2-(difluoromethoxy)phenyl]-1-methyl-pyrazol-4-yl]pyrazolo[1,5-a]pyrimidine-3-carboxamide] | 180 nM | –
0.82 nM | 0.48 nM | Cn1cc(NC(=O)c2cnn3cccnc23)c(-c2cc(S(=O)(=O)CCN)ccc2OC(F)F)n1 [Example 8, N-[3-[5-(2-aminoethylsulfonyl)-2-(difluoromethoxy)phenyl]-1-methyl-pyrazol-4-yl]pyrazolo[1,5-a]pyrimidine-3-carboxamide] | 92 nM | –
0.95 nM | 0.6 nM | Cn1cc(NC(=O)c2cnn3cccnc23)c(-c2cc(S(=O)(=O)C3CCNC3)ccc2OC(F)F)n1 (stereo not drawn) [Example 10, N-[3-[2-(difluoromethoxy)-5-pyrrolidin-3-ylsulfonyl-phenyl]-1-methyl-pyrazol-4-yl]pyrazolo[1,5-a]pyrimidine-3-carboxamide] | 52 nM | –
0.59 nM | 0.26 nM | CC(=O)N1CC(S(=O)(=O)c2ccc(OC(F)F)c(-c3nn(C)cc3NC(=O)c3cnn4cccnc34)c2)C1 [Example 27, N-[3-[5-(1-acetylazetidin-3-yl)sulfonyl-2-(difluoromethoxy)phenyl]-1-methyl-pyrazol-4-yl]pryazolo[1,5-a]pyrimidine-3-carboxamide] | 99 nM | –
0.84 nM | 0.38 nM | Cn1cc(NC(=O)c2cnn3cccnc23)c(-c2cc(S(N)(=O)=O)ccc2OC(F)F)n1 [Example 31, N-[3-[2-(difluoromethoxy)-5-sulfamoyl-phenyl]-1-methyl-pyrazol-4-yl]pyrazolo[1,5-a]pyrimidine-3-carboxamide] | 51 nM | –
